Each structure is given as a SMILES string.

The target of the assay is T1, human GLP-1 receptor (Homo sapiens, UniProt P43220).
T1 construct: expressed in transfected cells; host or cells: HEK-293
Description: cAMP response of HEK-293 cells stably expressing human GLP-1 receptor (HTRF). The conditions noted are these: Table 6; read-out: EC50 hGLP-1R. In kind it is cell-based. How it is done:
For preparation, cells were split into T175 culture flasks and grown overnight to near confluency in medium (DMEM/10% FBS). Medium was then removed and cells washed with PBS lacking calcium and magnesium, followed by proteinase treatment with accutase (Sigma-Aldrich cat. no. A6964). Detached cells were washed and resuspended in assay buffer (1×HBSS; 20 mM HEPES, 0.1% BSA, 2 mM IBMX) and cellular density determined. They were then diluted to 400000 cells/ml and 25 μl-aliquots dispensed into the wells of 96-well plates. For measurement, 25 μl of test compound in assay buffer was added to the wells, followed by incubation for 30 minutes at room temperature. […] Potencies of peptidic compounds at the GLP-1, glucagon and GIP receptors were determined by exposing cells expressing human glucagon receptor (hGlucagon R), human GIP receptor (hGIP-R) or human GLP-1 receptor (hGLP-1R) to the listed compounds at increasing concentrations and measuring the formed cAMP as described in Methods.
(In general: In TR-FRET formats the signal depends on donor and acceptor labels being close together.)

T1 sequence (P43220 24-463): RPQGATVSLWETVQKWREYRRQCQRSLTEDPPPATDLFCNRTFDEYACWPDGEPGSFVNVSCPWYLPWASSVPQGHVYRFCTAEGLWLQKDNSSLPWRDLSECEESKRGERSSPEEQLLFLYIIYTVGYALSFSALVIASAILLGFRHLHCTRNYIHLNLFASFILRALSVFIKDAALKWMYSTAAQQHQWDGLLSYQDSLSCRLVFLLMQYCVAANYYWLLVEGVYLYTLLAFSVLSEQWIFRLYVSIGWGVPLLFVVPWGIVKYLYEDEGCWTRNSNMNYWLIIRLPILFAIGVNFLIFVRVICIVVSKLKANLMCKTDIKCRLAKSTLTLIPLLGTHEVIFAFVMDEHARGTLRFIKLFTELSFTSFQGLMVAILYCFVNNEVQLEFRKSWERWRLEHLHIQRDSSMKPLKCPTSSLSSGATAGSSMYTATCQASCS

Take `CCCCCCCCCCCCCCCCCC(=O)N[C@@H](CCC(=O)NCCOCCOCC(=O)NCCOCCOCC(=O)NCCCC[C@H](NC(=O)[C@H](CCC(N)=O)NC(=O)[C@H](CCCCN)NC(=O)[C@H](CO)NC(=O)[C@H](CC(C)C)NC(=O)[C@H](CC(=O)O)NC(=O)[C@H](CO)NC(=O)[C@@H](NC(=O)[C@H](Cc1ccccc1)NC(=O)[C@@H](NC(=O)CNC(=O)[C@H](CCC(N)=O)NC(=O)[C@@H](CO)NC(=O)[C@@H](N)Cc1c[nH]cn1)[C@@H](C)O)[C@@H](C)O)C(=O)N[C@@H](CC(=O)O)C(=O)N[C@@H](CCC(=O)O)C(=O)N[C@@H](CCC(=O)O)C(=O)N[C@@H](C)C(=O)N[C@@H](C)C(=O)N[C@@H](CCCNC(=N)N)C(=O)N[C@@H](CC(C)C)C(=O)N[C@@H](Cc1ccccc1)C(=O)N[C@H](C(=O)N[C@@H](CCC(=O)O)C(=O)N[C@@H](Cc1c[nH]c2ccccc12)C(=O)N[C@@H](CC(C)C)C(=O)NC(C)(C)C(=O)N[C@@H](C)C(=O)NCC(=O)NCC(=O)N1CCC[C@H]1C(=O)N[C@@H](CO)C(=O)N[C@@H](CO)C(=O)NCC(=O)N[C@@H](C)C(=O)N1CCC[C@H]1C(=O)N1CCC[C@H]1C(=O)N1CCC[C@H]1C(=O)N[C@@H](CO)C(N)=O)[C@@H](C)CC)C(=O)O` [SEQ ID NO: 21, H-dSer-Q-G-T-F-T-S-D-L-S-K-Q-K(AEEAc-AEEAc- E-x70)-D-E-E-A-A-R-L-F-I-E-W-L-Aib-A-G-G-P-S-S-G-A-P-P-P-S-NH2]: the EC50 (usually the concentration giving half of the maximal effect) was determined as 1 pM.

With `CCCCCCCCCCCCCCCCCC(=O)N[C@@H](CCC(=O)NCCCC[C@H](NC(=O)[C@H](CCC(N)=O)NC(=O)[C@H](CCCCN)NC(=O)[C@H](CO)NC(=O)[C@H](CC(C)C)NC(=O)[C@H](CC(=O)O)NC(=O)[C@H](CO)NC(=O)[C@@H](NC(=O)[C@H](Cc1ccccc1)NC(=O)[C@@H](NC(=O)CNC(=O)[C@H](CCC(N)=O)NC(=O)[C@@H](CO)NC(=O)[C@@H](N)Cc1c[nH]cn1)[C@@H](C)O)[C@@H](C)O)C(=O)N[C@@H](CC(=O)O)C(=O)N[C@@H](CCC(=O)O)C(=O)N[C@@H](CCC(=O)O)C(=O)N[C@@H](C)C(=O)N[C@@H](C)C(=O)N[C@@H](CCCNC(=N)N)C(=O)N[C@@H](CC(C)C)C(=O)N[C@@H](Cc1ccccc1)C(=O)N[C@H](C(=O)N[C@@H](CCC(=O)O)C(=O)N[C@@H](Cc1c[nH]c2ccccc12)C(=O)N[C@@H](CC(C)C)C(=O)NC(C)(C)C(=O)N[C@@H](CCCCN)C(=O)N[C@H](C)C(=O)NCC(=O)N1CCC[C@H]1C(=O)N[C@@H](CO)C(=O)N[C@@H](CO)C(=O)NCC(=O)N[C@@H](C)C(=O)N1CCC[C@H]1C(=O)N1CCC[C@H]1C(=O)N1CCC[C@H]1C(=O)N[C@@H](CO)C(N)=O)[C@@H](C)CC)C(=O)O` [SEQ ID NO: 25, H-dSer-Q-G-T-F-T-S-D-L-S-K-Q-K(γE-x70)-D-E-E-A-A-R-L-F-I-E-W-L-Aib-K-dAla-G-P-S-S-G-A-P-P-P-S-NH2], the EC50 came to 2.1 pM.

The values are drawn from patent publication US9758561B2 (priority 2014, dated 2017).
